Results as given in paper PMC6727436, “Gummosin, a sesquiterpene coumarin from Ferula assa-foetida is preferentially cytotoxic to human breast and prostate cancer cell lines” (Avicenna Journal of Phytomedicine, 2019).
Converted amounts (≈) assume the structure as drawn.

Assays:
cancer cell lines = system: cancer cell lines; set-up: method as in Kasaian, et al., 2015; details: ref Kasaian, et al., 2015; cited from earlier work
[1] = system: MCF-7 human breast adenocarcinoma cell line; test: cells; assay type: cell-based; details: for IC50: Homo sapiens, MCF7, 48 h, read-out: IC50 (µg/mL)±SD/Cell line MCF-7; for IC50 / IC50 (µg/mL)±SD/Cell line MCF-7: MCF-7, 48 hr treatment, alamarBlue; for cytotoxic activity at highest dose: MCF-7, highest dose 50 µg/mL
Description: (§1) Human breast adenocarcinoma cell line (MCF-7), human prostate cancer cell line (PC3) and human normal fibroblast cell line (NIH) were obtained from Biotechnology Research Center (Mashhad, Iran) and subsequently grown in RPMI-1640 medium with 10% fetal bovine serum (Gibco, Invitrogen, Paisley, UK), penicillin (100 units/ml) and streptomycin ([…]) as antibiotics. The cell culture was done in a humidified incubator under the atmosphere of 5% CO2 at 37 °C.
(§2) To measure the cytotoxic activity of pure compounds, a non-fluorescent substrate called resazurin (alamarBlue®; BioSource Invitrogen, Paisley, UK) was used in this study. In this study, we used a method that was previously reported by Haaften et al., with some small modifications (van Haaften et al., 2011). Briefly, when the cells were in the exponential phase, 1×10^4 of the three cell lines were seeded in 96-well plates. The cells were incubated for 24 hr in order to adhere to the plastic surface of the bottom of the wells. After 24 hr, the cells were treated with 6.25, 12.5, 25 and 50 µg/mL of each compound from the stock solution of 5 mg/mL in dimethyl sulfoxide (DMSO) via serial solution prepared using RPMI-1640. The amount of DMSO in final culture media was lower than […]. Also, to rule out the effects of DMSO on cells, equal amount of DMSO was added to the untreated groups. After 48 hr, viability of the cells was measured by adding alamarBlue® reagent (10% of tissue culture volume from stock solution of 0.14 mg/mL). The absorbance of the wells was read at 600 nm using a microplate reader. Doxorubicin at concentrations of 0.1, 1 and 5 µg/mL was used as the positive control and the viability was calculated using following formula:
(§3) T=Absorbance of wells with pure compounds at 600 nm after 48 hr of incubation.
(§4) UT=Absorbance of wells with cell but without any compound at 600 nm after 48 hr of incubation.
(§5) B=Absorbance of blank (without cell and compounds) at 600 nm after 48 hr of incubation.
(§6) In this study, all the experiments were done at least in triplicate.

[2] = system: PC3 human prostate cancer cell line; test: cells; assay type: cell-based; details: for IC50: Homo sapiens, 48 h, read-out: IC50 (µg/mL)±SD/Cell line PC3; for IC50 / IC50 (µg/mL)±SD/Cell line PC3: PC3, 48 hr treatment, alamarBlue; for cytotoxic activity at highest dose: PC3, highest dose 50 µg/mL
Description: as §1, §2, §3, §4, §5, §6

[3] = system: NIH human normal fibroblast cell line; test: alamarBlue (resazurin) cytotoxicity assay, NIH normal cells; assay type: cell-based; details: for IC50: Homo sapiens, Fibroblast, NIH normal cells, 48 hr treatment, alamarBlue, read-out: IC50 (µg/mL)±SD/Cell line NIH
Description: as §1, §2, §3, §4, §5, §6

[4] = set-up: method as in Iranshahi, 2018; details: cell line not stated; ref Iranshahi, 2018; cited from earlier work
ovarian cancer cell line = system: ovarian cancer cell line; set-up: method as in Valiahdi et al., 2013; details: ref Valiahdi et al., 2013; read-out: IC50 against ovarian cancer cell line; cited from earlier work

Compound	IC50 [1]	IC50 [2]	IC50 [3]	other results
CC1=CC[C@@H]2C(C)(C)[C@H](O)CC[C@@]2(C)[C@@H]1COc1ccc2ccc(=O)oc2c1 [feselol, Feselol]				activity against cancer cell lines (cancer cell lines): inactive
CC(C)=CCC/C(C)=C/CC/C(C)=C/Cc1c(O)c2ccccc2oc1=O [ferulenol]				IC50 (cytotoxic activity) [4]: 1 µg/mL (≈ 2.73 µM)
C/C(=C\COc1ccc2ccc(=O)oc2c1)CC[C@@H]1C(C)(C)[C@H]2CC[C@]1(C)O2 [Farnesiferol C]	< 50 µg/mL	< 50 µg/mL	> 100 µg/mL	IC50 (µg/mL)±SD/Cell line MCF-7 [1]: 41.7 ± 8.2 µg/mL (≈ 109 µM); IC50 (µg/mL)±SD/Cell line PC3 [2]: 43.1 ± 9.5 µg/mL (≈ 113 µM)
CC1=CCC2C(C)(C)C(=O)CCC2(C)C1COc1ccc2ccc(=O)oc2c1 (centres unmarked) [conferone]				IC50 (ovarian cancer cell line): 7.79 µM
CC(C)=CCC/C(C)=C/CC/C(C)=C/COc1ccc2ccc(=O)oc2c1 [Umbelliprenin]	> 50 µg/mL	> 50 µg/mL	> 100 µg/mL	

The next lines start with results.

IC50 [1]	IC50 [2]	Compound	IC50 [3]	other results
< 50 µg/mL	< 50 µg/mL	C=C1CCC2C(C)(C)C(O)CCC2(C)C1COc1ccc2ccc(=O)oc2c1 (centres unmarked) [Gummosin]	> 100 µg/mL	IC50 (µg/mL)±SD/Cell line MCF-7 [1]: 32.1 ± 2.3 µg/mL (≈ 83.9 µM); IC50 (µg/mL)±SD/Cell line PC3 [2]: 30.0 ± 4.7 µg/mL (≈ 78.4 µM); toxicity in normal cell line ([3]; NIH normal cell line, at 50 µg/mL): did not cause any toxicity
< 50 µg/mL	< 50 µg/mL	C=C1CC[C@@H](O)C(C)(C)C1CC/C(C)=C/COc1ccc2ccc(=O)oc2c1 (some centres unmarked) [Farnesiferol B]	> 100 µg/mL	
> 50 µg/mL	> 50 µg/mL	CC1(C)CC[C@H]2C(C)(C)[C@H](O)CC[C@]2(C)[C@H]1COc1ccc2ccc(=O)oc2c1 [Samarcandin]	> 100 µg/mL	cytotoxic activity at highest dose [1]: unable to induce toxicity; cytotoxic activity at highest dose [2]: unable to induce toxicity
> 50 µg/mL	> 50 µg/mL	C=C1CC[C@@H]2C(C)(C)[C@H](O)CC[C@@]2(C)[C@H]1COc1ccc2ccc(=O)oc2c1 [Farnesiferol A]	> 100 µg/mL	cytotoxic activity at highest dose [1]: did not show cytotoxic activity; cytotoxic activity at highest dose [2]: did not show cytotoxic activity
0.28 µg/mL (≈ 0.515 µM)	0.62 µg/mL (≈ 1.14 µM)	COc1cccc2c1C(=O)c1c(O)c3c(c(O)c1C2=O)C[C@@](O)(C(=O)CO)C[C@@H]3O[C@H]1C[C@H](N)[C@H](O)[C@H](C)O1 [Doxorubicin, reference compound]		
